Measured values: PubChem BioAssay AID248 (DTP/NCI, 2004)
Toxic doses and inconclusive results are not listed. Rule as the data show it: active = T/C of 150% or more; inactive = T/C below 125%.

System: L1210 leukemia ip in BDF1 mice, survival T/C
Assay: NCI In Vivo Anticancer Drug Screen. Data for tumor model L1210 Leukemia (intraperitoneal) in B6D2F1 (BDF1) mice
Conditions: endpoint: mean survival time, higher = longer survival
Method in brief: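 Read-out is survival time, reported as the treated-group measurement over the vehicle-control measurement.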

[1] = dose: 100.0 mg/kg/injection, schedule: Q01DX001 (ip), vehicle: saline

Measured: T/C

CCC(=O)C(CCN(C)C)(c1ccccc1)c1ccccc1
inactive: [1] 110 % of control

CC(=O)c1cnn(-c2ccccc2)c1C
inactive: dose: 100.0 mg/kg/injection, schedule: Q01DX009 (ip), vehicle: other 96 % of control | dose: 100.0 mg/kg/injection, schedule: Q04DX003 (ip), vehicle: other 89 % of control | dose: 200.0 mg/kg/injection, schedule: Q01DX009 (ip), vehicle: other 101 % of control | dose: 200.0 mg/kg/injection, schedule: Q04DX003 (ip), vehicle: other 100 % of control | dose: 400.0 mg/kg/injection, schedule: Q01DX009 (ip), vehicle: other 102 % of control | dose: 400.0 mg/kg/injection, schedule: Q04DX003 (ip), vehicle: other 92 % of control

C=CCOC(=O)C(C)O (configuration not stated)
inactive: dose: 50.0 mg/kg/injection, schedule: Q01DX009 (ip), vehicle: saline 98 % of control | [1] 105 % of control | dose: 100.0 mg/kg/injection, schedule: Q01DX009 (ip), vehicle: saline 98 % of control | dose: 200.0 mg/kg/injection, schedule: Q01DX001 (ip), vehicle: saline 105 % of control | dose: 200.0 mg/kg/injection, schedule: Q01DX009 (ip), vehicle: saline 98 % of control
